Columns and labels:
[1] = Thermodynamic solubility, shake-flask, 10 mM PBS (0.15 M KCl) pH 7, 25 °C, 1 h, HPLC-UV; details: pH 7, 25 °C; for solubility at 1 h: 25 °C, pH 7, aqueous buffer, thermodynamic from solid
Description: Its measurement only requires an initial DMSO stock solution which is precipitated by the addition of an aqueous phase.[23],[24] Here, we measured thermodynamic solubility, often determined in late lead optimization, which efficiently considers the solubility value when the equilibrium with the stable phase or polymorph has been reached.
Solubility was determined in 10 mM PBS (0.15 M KCl) at pH 7, 25 °C. A 1–2 mg sample of each molecule was added to the same quantity (1–2 mL) of the mentioned buffer to obtain 1 mg/mL solutions in the vial. Samples were then submitted to 25 °C and magnetic stirring (500 rpm) for 1 h. After this period, solutions or suspensions were filtered through the 0.45 μm membrane pore and diluted with buffer, 10 mM PBS (0.15 M KCl). The amount of dissolved compound in each sample was then quantified, in duplicate, via HPLC using ultraviolet (UV) spectrometric detection.
Variable volumes of pure DMSO (0–100 μL) were added separately to small and defined (1 mg) quantities of each compound to obtain clear solutions. […] Afterward, 5% DMSO 10 mM PBS (0.15 M KCl) was added until the suspensions or precipitations were redissolved, to render clear solutions. As soon as solutions were obtained, they were used as mother solutions for the performance of 5–10 point calibration curves with serial buffer dilutions (1:1; v/v) 5% DMSO 10 mM PBS (0.15 M KCl). Calibration points were then measured via HPLC-UV.
The mobile phase consisted of a solution of acetonitrile (ACN) and 20 mM ammonium acetate buffer (AAB), pH 7, freshly prepared. A 10 μL volume of each sample (volume of injection) was injected at an isocratic 1 mL/min flow rate analyzed at 30 °C (oven temperature). Solubility determination of each compound required a specific HPLC method. Settings are collected in Table S11 (PROTACs) and Table S10 (building blocks).
Injections were performed in duplicate for each molecule’s calibration points. The retention time and area under the curve (AUC in absorbance units) were collected, and the average was calculated. The AUC average (y-axis) was plotted versus theoretical concentration (mg/mL; x-axis) to obtain a calibration curve for each molecule. Correlation equations and coefficients (R^2) were efficiently calculated for each compound (Table S12 for PROTACs and Table S10 for building blocks). Samples were then injected in duplicate, and the AUC averages and standard deviations were calculated. Finally, the absorbance averages were interpolated into the corresponding equations, extracting the final solubility values with their standard deviation, after dilution factor corrections.

physchem = details: for chromatographic logD: pH 7
Description: PROTAC experimental solubility was first correlated with lipophilicity descriptors (log P is implemented in the general solubility equation (GSE)[27]). As described by some of us,[16] BRlogD represents a validated,[28] very useful and straightforward chromatographic descriptor for the logarithm of the distribution coefficient in the n-octanol/water system (log D) of neutral and cationic bRo5 molecules.
The mobile phase consisted of an isocratic solution of 20 mM ammonium acetate (pH 7.0) and acetonitrile, 40–60%, respectively (v/v).[16] Samples were dissolved in buffer/ACN and injected into the XBridge column at a flow rate of 1.0 mL/min at 30 °C. Retention times were determined in duplicate, and the dead time, t0, was recorded as the baseline disturbance.

[2] = pH 7.0, extrapolated to 0% acetonitrile
Description: The logarithm of the capacity factor of an IAM column system, extrapolated at 100% water (log kw^IAM), is also an experimental descriptor of the lipophilicity of drugs since it mimics the interaction between the polar heads of the membrane phospholipids and the drug in solution.[29]
The mobile phase consisted of a solution of 20 mM ammonium acetate (pH 7.0) in a mixture with acetonitrile at various percentages (from 10 to 50%, v/v). Samples were dissolved in buffer/ACN and injected into the previously mentioned IAM column at a flow rate of 1.0 mL/min at 30 °C. Chromatographic retention data were determined in duplicate for the different mobile phase conditions. Data were recorded as log k′ (capacity factor k′ = [tR – t0]/t0), where tR and t0 are the retention times of the sample and a nonretained molecule (citric acid), respectively. Thus, log kw^IAM values were calculated by an extrapolation method of the experimental equation, at 0% acetonitrile. Moreover, five gold standard compounds (caffeine, carbamazepine, ketoprofen, theobromine, and toluene) were checked daily.

[3] = log kw^IAM – clog kw^IAM
Description: Since polarity is a molecular property often related to solubility,[13] experimental descriptors of polarity (Δ log kw^IAM and EPSA) were also determined. Introduced by Grumetto in 2012,[30] Δ log kw^IAM is the difference between the experimental log kw^IAM and the value expected for neutral analytes with a zero value of polar surface area (which depends on the experimental measurement of the n-octanol partition coefficient[31]). EPSA quantifies the polarity of a molecule using a supercritical fluid chromatographic (SFC) method.[32]

[4] = pKa determination by potentiometry (SiriusT3); details: for Ionization state at pH 7: experimental
Description: Solids were weighed with a Sartorius Entris224-1S Analytical (www.sartorius.com). pKa values were measured with a SiriusT3 instrument (Sirius Analytical Instruments) equipped with a reference pH electrode (Ag/AgCl double junction) and a turbidity detector. Ultrasonic cleaner, obtained from VWR Chemicals (www.vwr.com), and an IKA VORTEX 3 (www.ika.com) were used to avoid precipitation in the calibration points. Stirring and heating were provided by magnetic and heating plates C-MAG MS 7 and IKA ETS-D5, respectively (www.ika.com). Moreover, pH was measured with a Eutech pH Meter 2700 (www.fishersci.com). Analyses were carried out by high-performance liquid chromatography (HPLC; DIONEX Ultimate 3000, Thermo Scientific Inc.) provided with an RS diode array and Chromeleon 7.2.10 software (www.thermofisher.com). HPLC columns IAM.PC.DD2 (300 Å, 10 μm, 10 cm × 4.6 mm) from REGIS and XBridge Shield RP18 (130 Å, 5 μm, 5 cm × 4.6 mm) from Waters (www.waters.com) were used. Ergonomic high-performance single-channel variable volume pipettors, HPLC 1.5 mL vials, 0.1 mL microinsert, and PP 9 mm screw caps were obtained from VWR Signature. EPSA analyses were performed by supercritical fluid chromatography (SFC; JASCO SFC-4000, Jasco Europe srl), provided with a diode array and ChromNAV 2.04.00 software (www.jascoweb.com). The SFC column Chirex 3014 (S)-VAL and (R)-NEA (100 Å, 5 μm, 25 cm × 4.6 mm) from Phenomenex was used.
Acidic dissociation constants of pomalidomide, S,R,S-AHPC HCl, and S,S,S-AHPC 2HCl were measured potentiometrically. Titrations were performed to 0.15 M KCl sample solutions under a nitrogen atmosphere at 25 ± 1 °C. Moreover, standardized 0.5 M KOH and 0.5 M HCl were used as titration reagents (solutions were prepared from Titrisol (Merck) concentrated solutions).[45]

[5] = Exp.LogS, PROTAC pairs and building blocks

SMILES | solubility at 1 h [1, 5] [µM] | chromatographic logD (physchem) | Log kw IAM [2] | ΔLog kw IAM [3] | solubility at 1 h ([1]; Solubility average, thermodynamic, shake-flask, 1 h) [µM] | solubility at 1 h ([1]; Solubility log S, Table S-3) [µM] | solubility at 1 h ([1]; Solubility, Table S-3) [µg/mL] | Classification (GSK guidelines) ([1]; solubility class) | BRlogD (physchem; pH 7.0) | Experimental pKa (2-12) ([4]; 0.15 M KCl, 25 °C, (b) = basic) | Ionization state at pH 7 [4] | Ionization state at pH 7 ([4]; listed as pomalidomide)
COc1cc(C(=O)NC2CCN(C)CC2)ccc1Nc1ncc(C(F)(F)F)c(Oc2cccc3c2C(=O)CC3)n1 [BI-4464] | 64.6 | 1.79 | 1.84 | 1.23 |  |  |  |  |  |  |  | 
Cc1ncsc1-c1ccc(CNC(=O)[C@@H]2C[C@H](O)CN2C(=O)[C@@H](NC(=O)COCCOCCOCCOCCOCCOCC(=O)N[C@H](C(=O)N2C[C@@H](O)C[C@H]2C(=O)NCc2ccc(-c3scnc3C)cc2)C(C)(C)C)C(C)(C)C)cc1 [CMP98] |  |  |  | high | 331 | 331 | 390 | High (> 200 μM) (High (> 200 μM)) |  |  |  | 
CC(=O)N1c2ccc(-c3ccc(C(=O)O)cc3)cc2[C@H](Nc2ccc(Cl)cc2)C[C@@H]1C [I-BET726] | 60.3 | 0.3 | 1.88 | 2.64 |  |  |  |  |  |  |  | 
Cc1sc2c(c1C)C(c1ccc(Cl)cc1)=N[C@@H](CC(=O)O)c1nnc(C)n1-2 [JQ1 carboxylic acid] | > 2510 | 0.08 | 0.80 | 1.76 |  |  |  |  |  |  |  | 
Nc1cccc2c1C(=O)N(C1CCC(=O)NC1=O)C2=O (centres unmarked) [Pomalidomide] | 36.3 |  | 0.91 | 0.64 |  |  |  |  | 1.41 | Not ionizable | Neutral | not ionized
Cc1ncsc1-c1ccc(CNC(=O)[C@@H]2C[C@@H](O)CN2C(=O)[C@@H](N)C(C)(C)C)cc1.Cl [S,R,S-AHPC HCl] | 2090 | 0.56 | 1.83 | 2.34 |  |  |  |  |  |  |  | 
Cc1ncsc1-c1ccc(CNC(=O)[C@@H]2C[C@H](O)CN2C(=O)[C@@H](N)C(C)(C)C)cc1.Cl.Cl [S,S,S-AHPC 2HCl] | 2040 | 0.91 | 1.86 | 2.05 |  |  |  |  |  |  |  | 
